Our source for the viability values is PMC12040169 (PLOS Biology, 2025).

Molecules are shown by their SMILES.

A short description of the data set: in vitro. Conditions: human, hela cells, % viability.

Turning to `COc1ccc(-c2noc(CSc3nc4sc(C)c(C)c4c(=O)n3-c3ccccc3)n2)cc1` [CBK268264], the viability at 28.5 h, 10 µM was 100%.

Consider `COc1ccc(-c2nc(NCc3ccccc3)n(C(=O)c3ccc([N+](=O)[O-])cc3)n2)cc1` [CBK268265], for which the viability at 28.5 h, 10 µM amounted to 92.8%.

`Clc1ccc2nc(SCc3csc(Nc4ccccc4)n3)oc2c1` [CBK268269]: the viability at 28.5 h, 10 µM was found to be 100%. Take `COc1ccc([N+](=O)[O-])cc1NC(=O)CSCc1ccc(Br)cc1` [CBK268272]: the viability at 28.5 h, 10 µM was found to be 90.9%. For `O=[N+]([O-])c1ccc(/C=C/c2nn3c(Cn4cnc5ccccc54)nnc3s2)cc1` [CBK268273], the viability at 28.5 h, 10 µM was 104%.

As for `COC(=O)c1ccc(NC(=O)CN2CCC(C(N)=O)(N3CCCCC3)CC2)cc1` [CBK268275], the viability at 28.5 h, 10 µM turned out to be 95.5%. On to `Nc1nonc1C(=O)NCCNc1ccc([N+](=O)[O-])cn1` [CBK268279], for which the viability at 28.5 h, 10 µM was 97.7%. Take `O=C(Nc1ccc(O)c(C(=O)O)c1)c1ccc2c(c1)C(=O)N(CC1CCCO1)C2=O` (stereo not shown) [CBK268280]: the viability at 28.5 h, 10 µM is 101%. For `Cn1c(/C=C/C=C/CN2CCN(Cc3ccccc3)CC2)nc2ccc([N+](=O)[O-])cc21` [CBK268281], the viability at 28.5 h, 10 µM turned out to be 91.2%. The value for `O=C(O)c1cc(C(=O)O)n(Cc2ccc(Cl)cc2Cl)n1` [CBK268283] was 103%. As for `CN1CCN(NC(=O)C23CCC(C)(C(=O)O2)C3(C)C)CC1` (stereo not shown) [CBK268285], the viability at 28.5 h, 10 µM stood at 99.1%. Take `Cc1cc(S(=O)(=O)N2CCCC2)ccc1OCC(=O)O` [CBK268289]: the viability at 28.5 h, 10 µM is 89%. The value for `Cc1cc2c(=O)n(Cc3ccco3)c(SCc3cc(O)[nH]n3)nc2s1` [CBK268291] was 94.3%. The value for `COc1ccc(C(=O)NC(=S)Nc2ccccc2N2CCN(C)CC2)cc1[N+](=O)[O-]` [CBK268292C] was 87%. As to `O=C(COc1ccc(S(=O)(=O)N2CCc3ccccc32)cc1Cl)NCc1ccco1` [CBK268293], the viability at 28.5 h, 10 µM worked out at 102%. The value for `O=C(CN1C(=O)COc2ccc(Cl)cc21)Nc1ccc2[nH]c(=O)[nH]c2c1` [CBK268295] was 111%; that for `S=C(NCCc1ccccn1)NCCN1CCOCC1` [CBK268296] was 101%.

With `Cc1cc(C)nc(SCC(=O)Nc2ccc(S(=O)(=O)NC3CCCCC3)cc2)n1` [CBK268299], the viability at 28.5 h, 10 µM worked out at 86%.

Turning to `CCC(c1nc2ccccc2c(=O)n1-c1cccnc1)N1C(=O)c2ccccc2C1=O` (stereo not shown) [CBK268300], the viability at 28.5 h, 10 µM was determined as 99.1%. In the case of `O=c1c2c3c(sc2nc(SCc2cc(O)[nH]n2)n1Cc1ccco1)CCC3` [CBK268301], the viability at 28.5 h, 10 µM amounted to 99.4%. The value for `Cc1cc(C)c(NC(=O)CSCc2cc(O)[nH]n2)c(Cl)c1` [CBK268302] was 93.8%; that for `CN1CCN(C(=O)CCc2nc(-c3ccc(Cl)cc3)no2)CC1` [CBK268304] was 117%; that for `O=c1c2c3c(sc2nc(SCc2nc4ccccc4[nH]2)n1Cc1ccco1)CCC3` [CBK268306] was 104%. The result for `Cc1cc(C)c2c(CC(=O)NCCCN3CCOCC3)coc2c1` [CBK268307] reads 96.8%. The result for `CCOc1ccc(NC(=O)C(C)O)c(NS(=O)(=O)c2ccc3ccccc3c2)c1` (stereo not shown) [CBK268309] reads 87.6%.

On to `CS(=O)(=O)N1CCc2cc(S(=O)(=O)N3CCN(c4ccc([N+](=O)[O-])c(NCc5ccccc5)c4)CC3)ccc21` [CBK268311], for which the viability at 28.5 h, 10 µM stood at 102%.

Take `Cn1c(CN2CCCC2)nc2cc(NC(=O)c3cccc([N+](=O)[O-])c3)ccc21` [CBK268316]: the viability at 28.5 h, 10 µM came to 98.6%. Consider `CN(C)S(=O)(=O)N(CC(=O)NCc1ccncc1)c1ccccc1` [CBK268322], for which the viability at 28.5 h, 10 µM was 111%. Regarding `N=c1c2c3c(sc2ncn1CCCN1CCOCC1)CCCC3` [CBK268323], the viability at 28.5 h, 10 µM came out at 94.6%. As for `O=C(CCS(=O)(=O)Cc1ccccc1)n1nnc2ccccc21` [CBK268324], the viability at 28.5 h, 10 µM amounted to 99.4%. The result for `O=C(O)C1CCN(c2ncnc3sc4c(c23)CCC4)CC1` [CBK268326] reads 98.9%; that for `O=C1c2ccccc2C(=O)N1CCc1nc2c3c4c(sc3ncn2n1)CCCCC4` [CBK268327], 96.6%; that for `c1ccc(OCc2nn3c(Cn4nnc5ccccc54)nnc3s2)cc1` [CBK268330], 95.9%. For the compound `Cc1ccc(C(=O)O)cc1NC(=O)C(C)Oc1cccc(Cl)c1` (stereo not shown) [CBK268331], the viability at 28.5 h, 10 µM is 95.7%. For `COc1cc2[nH]c(=S)n(CCc3c[nH]cn3)c(=O)c2cc1OC` [CBK268333], the viability at 28.5 h, 10 µM is 102%. The value for `CSc1nsc(SCc2cnc(C)nc2N)n1` [CBK268337] was 105%; that for `COC(=O)COc1ccc(NC(=O)c2ccc([N+](=O)[O-])c(C)c2)cc1` [CBK268338] was 103%; that for `CC1CCN(S(=O)(=O)c2ccc(NC(=O)CN3CCOCC3)cc2)CC1` [CBK268339] was 81.4%.

Turning to `O=C(CCc1nc(-c2ccccc2F)no1)Nc1ccccc1[N+](=O)[O-]` [CBK268341], the viability at 28.5 h, 10 µM was 86.9%.

As to `CN1CCN(c2ccccc2NC(=O)c2cccc(OCc3ccccc3)c2)CC1` [CBK268345], the viability at 28.5 h, 10 µM came out at 102%. As for `O=C(Nc1ccc(S(=O)(=O)N2CCCCC2)cc1)c1ccc(NS(=O)(=O)c2ccccc2)cc1` [CBK268348], the viability at 28.5 h, 10 µM is 88.3%. For the compound `Cc1nnc(SCC(=O)n2c3c(c4ccccc42)CCCC3)n1C` [CBK268351], the viability at 28.5 h, 10 µM came to 111%. The value for `COc1ccc(CCNS(=O)(=O)c2ccc(C3CNC(=O)C3)cc2)cc1OC` (stereo not shown) [CBK268352] was 112%; that for `Cc1ccc(S(=O)(=O)NC(C)(C)CSc2ccccc2)cc1` [CBK268354] was 88.6%. Turning to `COc1cc2c(cc1NS(=O)(=O)N1CCCCC1)oc1ccccc12` [CBK268355], the viability at 28.5 h, 10 µM was 85.8%.

On to `O=C(CSc1nnc2c(n1)[nH]c1ccccc12)NCCOc1ccccc1` [CBK268358], for which the viability at 28.5 h, 10 µM is 101%. In the case of `Cn1c(COc2ccc(Cl)cc2Cl)nnc1SCC(=O)N1c2ccccc2SC2C=CC=CC21` (stereo not shown) [CBK268359], the viability at 28.5 h, 10 µM amounted to 103%.

`Cc1nc2ccccc2nc1CSc1nnc(Cc2ccccc2)n1-c1ccccc1` [CBK268360]: the viability at 28.5 h, 10 µM is 104%. Consider `Cc1cccc(C(=O)O)c1NC(=O)Cc1cccc2ccccc12` [CBK268361], for which the viability at 28.5 h, 10 µM turned out to be 111%. `Cn1c(CN2CCN(S(C)(=O)=O)CC2)nc2cc([N+](=O)[O-])ccc21` [CBK268362]: the viability at 28.5 h, 10 µM was 98.4%.

Consider `COC(=O)c1c(C)n(CCCNc2ccc([N+](=O)[O-])cc2Cl)c2ccc(O)cc12` [CBK268363], for which the viability at 28.5 h, 10 µM was 86.2%. For the compound `NC(=O)C1(N2CCCCC2)CCN(CC(=O)Nc2ccc(Br)cc2)CC1` [CBK268364], the viability at 28.5 h, 10 µM was 86.2%. The result for `O=C(Nc1ccc(Cc2ccc(NC(=O)c3ccccc3F)c(O)c2)cc1O)c1ccccc1F` [CBK268366] reads 90.4%; that for `CCNS(=O)(=O)c1ccc(CCC(=O)Nc2ccc3c(c2)OCO3)cc1` [CBK268367], 101%. The result for `Cc1cc(C)n2c(SCC(C)(C)NS(=O)(=O)c3ccccc3)nnc2n1` [CBK268369] reads 111%; that for `COc1ccc2[nH]c(/C(C#N)=C\c3ccc(-c4cc(C(=O)O)ccc4Cl)o3)nc2c1` [CBK268370], 90.4%; that for `COc1ccccc1-c1nn2c(Cn3nnc4ccccc43)nnc2s1` [CBK268373], 82.4%. With `COC(=O)Nc1ncc(CN2CCc3ccccc3C2)s1` [CBK268376], the viability at 28.5 h, 10 µM stood at 97.5%. The result for `O=C(COc1ccc(S(=O)(=O)N2CCOCC2)cc1)NCc1ccco1` [CBK268377] reads 108%.

On to `Cc1cc(C)n(-c2nc3cc(Cl)ccc3nc2Nc2ccc3c(c2)OCO3)n1` [CBK268380], for which the viability at 28.5 h, 10 µM came out at 91.9%. The result for `CN(C)S(=O)(=O)n1cc(/C=C/c2nc(N)nc(-c3ccccc3O)n2)c2ccccc21` [CBK268386] reads 119%; that for `CC1CCN(CC(=O)Nc2sc3c(c2C(=O)NCc2ccccc2)CCCC3)CC1` [CBK268387], 107%; that for `CN(CC(=O)O/N=C(\N)c1ccc(I)cc1)S(=O)(=O)c1cc(Cl)ccc1Cl` [CBK268389], 89.6%. The value for `COc1ccc(-c2noc(CSc3nnc(-c4cccs4)n3-c3ccccc3)n2)cc1` [CBK268390] was 107%; that for `CC(C)(C)c1cc(CCC(=O)NNC(=O)c2ccccc2Cl)cc(C(C)(C)C)c1O` [CBK268391] was 109%; that for `CN(C)c1ccc(Nc2nc(NCCO)c3ccccc3n2)cc1` [CBK268392C] was 87.6%. Take `c1ccc2c(c1)nnn2Cc1nnc2sc(-c3cnccn3)nn12` [CBK268393]: the viability at 28.5 h, 10 µM is 84.7%.

For `CC(C)(C)c1ccc(C(=O)CSCC(=O)Nc2ccc3ccccc3c2)cc1` [CBK268394], the viability at 28.5 h, 10 µM stood at 85.2%. Take `CC(=O)Nc1ccc(S(=O)(=O)NC2(C(F)(F)F)C(=O)Nc3c2c(=O)[nH]c(=S)n3Cc2ccco2)cc1` (stereo not shown) [CBK268395]: the viability at 28.5 h, 10 µM worked out at 96.8%. Turning to `Cn1c(COc2ccccc2)nnc1SCC(=O)c1cccc([N+](=O)[O-])c1` [CBK268397], the viability at 28.5 h, 10 µM is 101%. The value for `O=C(CCS(=O)(=O)Cc1ccccc1)Nc1cc(C(F)(F)F)ccc1Cl` [CBK268399] was 108%. The value for `O=C(O)c1ccc(Cl)c2c1C1C=CCC1C(c1ccc(S(=O)(=O)N3CCOCC3)cc1)N2` (stereo not shown) [CBK268401] was 108%; that for `Oc1ccccc1Nc1nc(NC2CCCC2)c2ccccc2n1` [CBK268402C] was 84.8%. The value for `CCOc1ccccc1Nc1c([N+](=O)[O-])nn(-c2ccc(OC)cc2)[n+]1[O-]` [CBK268411] was 90.2%. As to `O=c1cc(-c2ccccc2)nc(SCc2nc(-c3cccs3)no2)[nH]1` [CBK268416], the viability at 28.5 h, 10 µM turned out to be 107%.

Take `Cc1ccc(C(=O)N(Cc2nc(-c3ccc(Cl)cc3)no2)C(C)C)cc1[N+](=O)[O-]` [CBK268422]: the viability at 28.5 h, 10 µM came out at 98.7%.
